Test results published in patent US20240254118A1, “PRMT5 INHIBITORS AND USES THEREOF” (Gilead Sciences, Inc., priority 2022, published 2024).

What was measured:
[1] = system: SDMA signal (PRMT5 inhibition) in HCT116 MTAP-deleted cells; experiment: Symmetric di-methyl arginine image-based high content screen assay (SDMA assay), HCT116 MTAP-deleted; format: cell-based; conditions: SDMA assay; for EC50: Homo sapiens, HCT-116, 72 h, 3 days of treatment, cell line not given, taken as HCT116 MTAP-deleted, read-out: EC50 (SDMA assay)
Summary of the method: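 HCT116 MTAP-deleted cells treated with compound until Day 3, then formalin-fixed, permeabilized and immunostained for SDMA, with DAPI nuclear counterstain. Imaged by high-content microscopy; SDMA read-out is mean Alexa 488 intensity per DAPI-defined cell, reflecting PRMT5 inhibition.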

[2] = system: HCT116 MTAP-deleted cells; experiment: Cell viability assay (CellTiter-Glo, 7 days), HCT116 MTAP-deleted; conditions: Homo sapiens, HCT-116, 168 h
[3] = taken as HCT116 WT versus MTAP-deleted

Row | SMILES | EC50 [1] [nM] | EC50 selectivity (SDMA assay) [1, 3] | CC50 [2] [nM] | EC50 selectivity (SDMA assay) ([1]; taken as HCT116 WT vs MTAP-deleted)
1 | CN(CC1CC1)N(Cc1ccc(C(F)(F)F)cn1)C(=O)c1cc2c(cc1F)nc(N)c1cnn(C)c12 [Example 174, 4-amino-N′-(cyclopropylmethyl)-7-fluoro-N′,1-dimethyl-N-[[5-(trifluoromethyl)-2-pyridyl]methyl]pyrazolo[4,3-c]quinoline-8-carbohydrazide] | < 1 | 24 | < 100 | –
2 | CN(C(=O)c1ccncc1)N(Cc1ccc(C(F)(F)F)cn1)C(=O)c1ccc2nc(N)c3cnn(C)c3c2c1 [Example 113, 4-amino-N′,1-dimethyl-N′-(pyridine-4-carbonyl)-N-[[5-(trifluoromethyl)-2-pyridyl]methyl]pyrazolo[4,3-c]quinoline-8-carbohydrazide] | 1 to 5 | 404 | 100 to 1000 | –
3 | CN1CCN(N(Cc2ccc(C(F)(F)F)cn2)C(=O)c2ccc3nc(N)c4cnn(C)c4c3c2)C(=O)C1 [Example 382, 4-amino-1-methyl-N-(4-methyl-2-oxo-piperazin-1-yl)-N-[[5-(trifluoromethyl)-2-pyridyl]methyl]pyrazolo[4,3-c]quinoline-8-carboxamide] | 1 to 5 | 167 | < 100 | –
4 | CN(C(=O)C1CC1)N(Cc1ccc(C(F)(F)F)cn1)C(=O)c1cc2c(cc1Cl)nc(N)c1cnn(C)c12 [Example 304, 4-amino-7-chloro-N′-(cyclopropanecarbonyl)-N′,1-dimethyl-N-((5-(trifluoromethyl)pyridin-2-yl)methyl)-1H-pyrazolo[4,3-c]quinoline-8-carbohydrazide] | 1 to 5 | 15 | < 100 | –
5 | CC(=O)N(C)N(Cc1ccc2nc(C)oc2c1)C(=O)c1ccc2nc(N)c3cnn(C)c3c2c1 [Example 335, N′-acetyl-4-amino-N′,1-dimethyl-N-((2-methylbenzo[d]oxazol-6-yl)methyl)-1H-pyrazolo[4,3-c]quinoline-8-carbohydrazide] | 1 to 5 | 272 | < 100 | –
6 | Cn1ncc2c(N)nc3ccc(C(=O)N(Cc4ccc(C(F)(F)F)cn4)N4CCOCC4)cc3c21 [Example 20, 4-amino-1-methyl-N-morpholino-N-((5-(trifluoromethyl)pyridin-2-yl)methyl)-1H-pyrazolo[4,3-c]quinoline-8-carboxamide] | < 1 | 143 | < 100 | –
7 | [2H]C([2H])(c1ccc(C(F)(F)F)cc1F)N(C(=O)c1ccc2nc(N)c3cnn(C)c3c2c1)N(C)C(=O)C1CC1 [Example 263, 4-amino-N′-(cyclopropanecarbonyl)-N-((2-fluoro-4-(trifluoromethyl)phenyl)methyl-d2)-N′,1-dimethyl-1H-pyrazolo[4,3-c]quinoline-8-carbohydrazide] | < 1 | 46 | < 100 | –
8 | Cn1ncc2c(N)nc3cc(F)c(C(=O)N(Cc4ccc(C(F)(F)F)cn4)N4CCC(C)(C)C4=O)cc3c21 [Example 44, 4-amino-N-(3,3-dimethyl-2-oxo-pyrrolidin-1-yl)-7-fluoro-1-methyl-N-[[5-(trifluoromethyl)-2-pyridyl]methyl]pyrazolo[4,3-c]quinoline-8-carboxamide] | 1 to 5 | 187 | < 100 | –
9 | Cn1ncc2c(N)nc3ccc(C(=O)N(Cc4ccc(C(F)(F)F)cn4)N4CC5(CCC5)OC4=O)cc3c21 [Example 17, 4-amino-1-methyl-N-(6-oxo-5-oxa-7-azaspiro[3.4]octan-7-yl)-N-[[5-(trifluoromethyl)-2-pyridyl]methyl]pyrazolo[4,3-c]quinoline-8-carboxamide] | < 1 | 502 | < 100 | –
10 | CN(C(=O)c1ncco1)N(Cc1ccc(C(F)(F)F)cc1)C(=O)c1ccc2nc(N)c3cnn(C)c3c2c1 [Example 219, N′-(4-amino-1-methyl-1H-pyrazolo[4,3-c]quinoline-8-carbonyl)-N-methyl-N′-(4-(trifluoromethyl)benzyl)oxazole-2-carbohydrazide] | < 1 | 9 | < 100 | –
11 | CCOC(=O)NN(Cc1ccc(C(F)(F)F)cn1)C(=O)c1cc2c(cc1F)nc(N)c1cnn(C)c12 [Example 46, ethyl N-[(4-amino-7-fluoro-1-methyl-pyrazolo[4,3-c]quinoline-8-carbonyl)-[[5-(trifluoromethyl)-2-pyridyl]methyl]amino]carbamate] | < 1 | 6 | < 100 | –
12 | Cn1ncc2c(N)nc3cc(F)c(C(=O)N(Cc4ccccn4)N4CCCC4=O)cc3c21 [Example 53, 4-amino-7-fluoro-1-methyl-N-(2-oxopyrrolidin-1-yl)-N-(pyridin-2-ylmethyl)-1H-pyrazolo[4,3-c]quinoline-8-carboxamide] | 1 to 5 | 338 | 100 to 1000 | –
13 | CC(=O)N(C)N(Cc1ccc(C2CC2)nc1F)C(=O)c1ccc2nc(N)c3cnn(C)c3c2c1 [Example 228, N′-acetyl-4-amino-N-((6-cyclopropyl-2-fluoropyridin-3-yl)methyl)-N′,1-dimethyl-1H-pyrazolo[4,3-c]quinoline-8-carbohydrazide] | 1 to 5 | 205 | < 100 | –
14 | CC(=O)N(CC(F)(F)F)N(Cc1ccc(C(F)(F)F)cn1)C(=O)c1ccc2nc(N)c3cnn(C)c3c2c1 [Example 116, N′-acetyl-4-amino-1-methyl-N′-(2,2,2-trifluoroethyl)-N-[[5-(trifluoromethyl)-2-pyridyl]methyl]pyrazolo[4,3-c]quinoline-8-carbohydrazide] | 1 to 5 | 189 | 100 to 1000 | –
15 | CN(C(=O)OCC(F)F)N(Cc1ccc(C(F)(F)F)cn1)C(=O)c1ccc2nc(N)c3cnn(C)c3c2c1 [Example 110, 2,2-difluoroethyl N-[(4-amino-1-methyl-pyrazolo[4,3-c]quinoline-8-carbonyl)-[[5-(trifluoromethyl)-2-pyridyl]methyl]amino]-N-methyl-carbamate] | < 1 | 11 | < 100 | –
16 | Cn1ncc2c(N)nc3ccc(C(=O)N(Cc4ccc(C(F)(F)F)cn4)N4C(=O)[C@H]5CC[C@@H]4C5)cc3c21 [Example 11, 4-amino-1-methyl-N-[(1R,4S)-3-oxo-2-azabicyclo[2.2.1]heptan-2-yl]-N-[[5-(trifluoromethyl)-2-pyridyl]methyl]pyrazolo[4,3-c]quinoline-8-carboxamide] | < 1 | 245 | < 100 | –
17 | Cn1ncc2c(N)nc3ccc(C(=O)N(Cc4ccc(C(F)(F)F)cc4F)N4CCOCC4)cc3c21 [Example 397, 4-amino-N-[[2-fluoro-4-(trifluoromethyl)phenyl]methyl]-1-methyl-N-morpholino-pyrazolo[4,3-c]quinoline-8-carboxamide] | 1 to 5 | – | < 100 | 78
18 | [2H]C([2H])(c1ccc(C(F)(F)F)cc1F)N(C(=O)c1ccc2nc(N)c3cnn(C)c3c2c1)N(C)C(C)=O [Example 264, N′-acetyl-4-amino-N-((2-fluoro-4-(trifluoromethyl)phenyl)methyl-d2)-N′,1-dimethyl-1H-pyrazolo[4,3-c]quinoline-8-carbohydrazide] | < 1 | 281 | < 100 | –
